Paper PMC8480901 (PLoS ONE, 2021)
“And” between values parts separate entries of the source, which are not always exact repeats. Equal entries are not always repeated.

Tested on: J774.2 mouse macrophages
Experiment: LPS-induced cytokine and chemokine levels in J774.2 mouse macrophage cell supernatant (ELISA)
Format: cell-based
Conditions: for CXCL1 % reduction / CXCL1 [pg/mL] Mean / CXCL2 % reduction / CXCL2 [pg/mL] Mean / MMP9 % reduction / MMP9 [pg/mL] Mean / CXCL2 / MMP9: J774.2 cells; for CXCL1 % reduction / CXCL1 [pg/mL] Mean / CXCL2 % reduction / CXCL2 [pg/mL] Mean / MMP9 % reduction / MMP9 [pg/mL] Mean / CCl2, % reduction / CCl2, Mean / IL-1β % reduction / IL-6 % reduction / TNF-α % reduction / TNF-α Mean / CCl2 / CXCL1 / TNF-α / CXCL2 / MMP9: LPS; for CCl2, % reduction / CCl2, Mean / IL-1β % reduction / IL-6 % reduction / TNF-α % reduction / TNF-α Mean / CCl2 / CXCL1 / TNF-α: J774.2 supernatant; for CCl2 / CXCL1 / TNF-α / CXCL2 / MMP9: individual replicate

For C[C@@H]1C[C@H]2[C@@H]3CCC4=CC(=O)C=C[C@]4(C)[C@@]3(F)[C@@H](O)C[C@]2(C)[C@@]1(O)C(=O)CO [Dexamethasone], the CXCL1 % reduction (compound 0.0003 µM) was -75%, the “CXCL1 [pg/mL] Mean” value (compound 0.0003 µM) was 45 pg/mL and the CXCL2 % reduction (compound 0.0003 µM) was 24%. For the same molecule, the “CXCL2 [pg/mL] Mean” value (compound 0.0003 µM) was 24934 pg/mL, the MMP9 % reduction (compound 0.0003 µM) was 2.49% and the “MMP9 [pg/mL] Mean” value (compound 0.0003 µM) was 941 pg/mL. For the same molecule, the CXCL1 % reduction (compound 0.001 µM) was -60%, the “CXCL1 [pg/mL] Mean” value (compound 0.001 µM) was 41 pg/mL and the CXCL2 % reduction (compound 0.001 µM) was 22%. The “CXCL2 [pg/mL] Mean” value (compound 0.001 µM) was 25589 pg/mL, the MMP9 % reduction (compound 0.001 µM) was -3.26% and the “MMP9 [pg/mL] Mean” value (compound 0.001 µM) was 993 pg/mL. For the same molecule, the CXCL1 % reduction (compound 0.003 µM) was -60%, the “CXCL1 [pg/mL] Mean” value (compound 0.003 µM) was 41 pg/mL and the CXCL2 % reduction (compound 0.003 µM) was 22%. The “CXCL2 [pg/mL] Mean” value (compound 0.003 µM) was 25475 pg/mL, the MMP9 % reduction (compound 0.003 µM) was 0.402% and the “MMP9 [pg/mL] Mean” value (compound 0.003 µM) was 960 pg/mL. The CXCL1 % reduction (compound 0.01 µM) was -89%, the “CXCL1 [pg/mL] Mean” value (compound 0.01 µM) was 48 pg/mL and the CXCL2 % reduction (compound 0.01 µM) was 23%. The “CXCL2 [pg/mL] Mean” value (compound 0.01 µM) was 24995 pg/mL, the MMP9 % reduction (compound 0.01 µM) was -17% and the “MMP9 [pg/mL] Mean” value (compound 0.01 µM) was 1120 pg/mL. The “CXCL1 [pg/mL] Mean” value (compound 0.03 µM) was 66 pg/mL, the CXCL2 % reduction (compound 0.03 µM) was 17% and the “CXCL2 [pg/mL] Mean” value (compound 0.03 µM) was 26915 pg/mL. The MMP9 % reduction (compound 0.03 µM) was -7%, the “MMP9 [pg/mL] Mean” value (compound 0.03 µM) was 1030 pg/mL and the CXCL1 % reduction (compound 0.1 µM) was -158%. The “CXCL1 [pg/mL] Mean” value (compound 0.1 µM) was 66 pg/mL, the CXCL2 % reduction (compound 0.1 µM) was 23% and the “CXCL2 [pg/mL] Mean” value (compound 0.1 µM) was 25079 pg/mL. The MMP9 % reduction (compound 0.1 µM) was -12%, the “MMP9 [pg/mL] Mean” value (compound 0.1 µM) was 1071 pg/mL and the CXCL1 % reduction (compound 0.3 µM) was -170%. The “CXCL1 [pg/mL] Mean” value (compound 0.3 µM) was 69 pg/mL, the CXCL2 % reduction (compound 0.3 µM) was 24% and the “CXCL2 [pg/mL] Mean” value (compound 0.3 µM) was 24836 pg/mL. For the same molecule, the MMP9 % reduction (compound 0.3 µM) was 4.75%, the “MMP9 [pg/mL] Mean” value (compound 0.3 µM) was 921 pg/mL and the CXCL1 % reduction (compound 1 µM) was -156%. The “CXCL1 [pg/mL] Mean” value (compound 1 µM) was 66 pg/mL, the CXCL2 % reduction (compound 1 µM) was 21% and the “CXCL2 [pg/mL] Mean” value (compound 1 µM) was 25750 pg/mL. The MMP9 % reduction (compound 1 µM) was -12%, the “MMP9 [pg/mL] Mean” value (compound 1 µM) was 1077 pg/mL and the “LPS-induced TNF-α, IL-6, and IL-1β in supernatant” value (J774.2 mouse macrophages, 0.0003-1 µM) was “dose-dependent reductions”. For the same molecule, the CCl2, % reduction (0.0003 µM) was 30%, the “CCl2, Mean” value (0.0003 µM) was 25543 pg/mL and the IL-1β % reduction (0.0003 µM) was -32%. The IL-6 % reduction (0.0003 µM) was -12%, the TNF-α % reduction (0.0003 µM) was -6.59% and the “TNF-α Mean” value (0.0003 µM) was 1457 pg/mL. For the same molecule, the CCl2 (0.0003 µM) was 25420.3 pg/mL and 25666.2 pg/mL, the CXCL1 (0.0003 µM) was 47.7 pg/mL and 41.8 pg/mL and the TNF-α (0.0003 µM) was 1400.2 pg/mL and 1513.9 pg/mL. For the same molecule, the CCl2, % reduction (0.001 µM) was 27%, the “CCl2, Mean” value (0.001 µM) was 26540 pg/mL and the IL-1β % reduction (0.001 µM) was -9%. For the same molecule, the IL-6 % reduction (0.001 µM) was 2.11%, the “TNF-α Mean” value (0.001 µM) was 1347 pg/mL and the CCl2 (0.001 µM) was 25719.1 pg/mL and 27360.7 pg/mL. The CXCL1 (0.001 µM) was 36.1 pg/mL and 45.9 pg/mL, the TNF-α (0.001 µM) was 1307.1 pg/mL and 1387.6 pg/mL and the CCl2, % reduction (0.003 µM) was 17%. For the same molecule, the “CCl2, Mean” value (0.003 µM) was 29971 pg/mL, the IL-1β % reduction (0.003 µM) was 20% and the IL-6 % reduction (0.003 µM) was -10%. For the same molecule, the TNF-α % reduction (0.003 µM) was 9%, the “TNF-α Mean” value (0.003 µM) was 1248 pg/mL and the CCl2 (0.003 µM) was 29318.9 pg/mL and 30622.8 pg/mL. The CXCL1 (0.003 µM) was 44.3 pg/mL and 37.5 pg/mL, the TNF-α (0.003 µM) was 1276.5 pg/mL and 1220.4 pg/mL and the CCl2, % reduction (0.01 µM) was 11%. The “CCl2, Mean” value (0.01 µM) was 32289 pg/mL, the IL-1β % reduction (0.01 µM) was 44% and the IL-6 % reduction (0.01 µM) was 16%. For the same molecule, the TNF-α % reduction (0.01 µM) was 16%, the “TNF-α Mean” value (0.01 µM) was 1149 pg/mL and the CCl2 (0.01 µM) was 33314.7 pg/mL and 31263.9 pg/mL. For the same molecule, the CXCL1 (0.01 µM) was 53.3 pg/mL and 43.3 pg/mL, the TNF-α (0.01 µM) was 1202.6 pg/mL and 1095.5 pg/mL and the CCl2, % reduction (0.03 µM) was -11%. For the same molecule, the “CCl2, Mean” value (0.03 µM) was 39841 pg/mL, the IL-1β % reduction (0.03 µM) was 63% and the IL-6 % reduction (0.03 µM) was 40%. For the same molecule, the TNF-α % reduction (0.03 µM) was 30%, the “TNF-α Mean” value (0.03 µM) was 960 pg/mL and the CCl2 (0.03 µM) was 43664.9 pg/mL and 36017.7 pg/mL. The CXCL1 (0.03 µM) was 62.3 pg/mL and 70.1 pg/mL, the TNF-α (0.03 µM) was 997.7 pg/mL and 922.4 pg/mL and the CCl2, % reduction (0.1 µM) was -6%. The “CCl2, Mean” value (0.1 µM) was 38142 pg/mL, the IL-1β % reduction (0.1 µM) was 69% and the IL-6 % reduction (0.1 µM) was 54%. The TNF-α % reduction (0.1 µM) was 37%, the “TNF-α Mean” value (0.1 µM) was 868 pg/mL and the CCl2 (0.1 µM) was 39902.2 pg/mL and 36382.1 pg/mL. The CXCL1 (0.1 µM) was 70.5 pg/mL and 61.8 pg/mL, the TNF-α (0.1 µM) was 957.1 pg/mL and 779.4 pg/mL and the CCl2, % reduction (0.3 µM) was 15%. The “CCl2, Mean” value (0.3 µM) was 30843 pg/mL, the IL-1β % reduction (0.3 µM) was 75% and the IL-6 % reduction (0.3 µM) was 57%. For the same molecule, the TNF-α % reduction (0.3 µM) was 49%, the “TNF-α Mean” value (0.3 µM) was 706 pg/mL and the CCl2 (0.3 µM) was 33366.7 pg/mL and 28320.1 pg/mL. The CXCL1 (0.3 µM) was 70.8 pg/mL and 67.4 pg/mL, the TNF-α (0.3 µM) was 780.3 pg/mL and 630.8 pg/mL and the CCl2, % reduction (1 µM) was 14%. The “CCl2, Mean” value (1 µM) was 31213 pg/mL, the IL-1β % reduction (1 µM) was 76% and the IL-6 % reduction (1 µM) was 58%. The TNF-α % reduction (1 µM) was 52%, the “TNF-α Mean” value (1 µM) was 671 pg/mL and the CCl2 (1 µM) was 32973.4 pg/mL and 29452.4 pg/mL. For the same molecule, the CXCL1 (1 µM) was 65.4 pg/mL and 65.8 pg/mL, the TNF-α (1 µM) was 708.1 pg/mL and 633.8 pg/mL and the “CXCL2” value (compound 0.0003 µM) was 24204.6 pg/mL and 25664.1 pg/mL. For the same molecule, the “MMP9” value (compound 0.0003 µM) was 875.528 pg/mL and 1006.68 pg/mL, the “CXCL2” value (compound 0.001 µM) was 24896.6 pg/mL and 26281.1 pg/mL and the “MMP9” value (compound 0.001 µM) was 908.955 pg/mL and 1077.76 pg/mL. For the same molecule, the “CXCL2” value (compound 0.003 µM) was 26063.4 pg/mL and 24885.7 pg/mL, the “MMP9” value (compound 0.003 µM) was 895.348 pg/mL and 1024.81 pg/mL and the “CXCL2” value (compound 0.01 µM) was 24945.6 pg/mL and 25043.7 pg/mL. For the same molecule, the “MMP9” value (compound 0.01 µM) was 1078.2 pg/mL and 1162.43 pg/mL, the “CXCL2” value (compound 0.03 µM) was 28314.6 pg/mL and 25515.2 pg/mL and the “MMP9” value (compound 0.03 µM) was 1067.94 pg/mL and 991.656 pg/mL. For the same molecule, the “CXCL2” value (compound 0.1 µM) was 25553.8 pg/mL and 24603.6 pg/mL, the “MMP9” value (compound 0.1 µM) was 1150.63 pg/mL and 991.656 pg/mL and the “CXCL2” value (compound 0.3 µM) was 25702.8 pg/mL and 23968.8 pg/mL. For the same molecule, the “MMP9” value (compound 0.3 µM) was 877.422 pg/mL and 963.71 pg/mL, the “CXCL2” value (compound 1 µM) was 26832.3 pg/mL and 24668.5 pg/mL and the “MMP9” value (compound 1 µM) was 1055.41 pg/mL and 1099.09 pg/mL.
